Data: patent US6593357B1, “Pyrazole compositions useful as inhibitors of ERK” (Vertex Pharmaceuticals Incorporated, priority 2000, dated 2003)

target: ERK2 (Homo sapiens, UniProt P28482); assay: ERK2 inhibition, spectrophotometric coupled-enzyme assay; assay type: biochemical; conditions: ERK2 Inhibitory Activity (Ki class), activated ERK2 10 nM, 65 μM ATP, 30° C., pH 7.5
Sequence (P28482 whole entry): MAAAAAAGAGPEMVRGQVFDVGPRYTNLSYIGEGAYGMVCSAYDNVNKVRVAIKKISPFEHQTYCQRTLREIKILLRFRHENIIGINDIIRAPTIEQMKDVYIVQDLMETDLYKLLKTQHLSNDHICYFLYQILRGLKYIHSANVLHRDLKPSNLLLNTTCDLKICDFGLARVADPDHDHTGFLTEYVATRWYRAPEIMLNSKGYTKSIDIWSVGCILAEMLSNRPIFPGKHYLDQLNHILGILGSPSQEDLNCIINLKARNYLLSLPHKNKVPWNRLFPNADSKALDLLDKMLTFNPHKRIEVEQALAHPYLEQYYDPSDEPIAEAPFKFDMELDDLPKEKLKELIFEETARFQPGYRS

For `CCN1CCCC1CNC(=O)c1cc(-c2n[nH]cc2-c2cccc(Cl)c2)c[nH]1` (stereo not shown) [II-286], the Ki was > 5 µM.

same assay, conditions: activated ERK2 10 nM, 65 μM ATP, 30° C., pH 7.5; read-out: ERK2 Inhibitory Activity (Ki class)

`CN1CCN(C(=O)c2cc(-c3[nH]ncc3-c3ccccc3)c[nH]2)CC1` [II-21] and `CC1CCN(C(=O)c2cc(-c3[nH]ncc3-c3ccccc3)c[nH]2)CC1` [II-166] cannot be ordered by Ki: > 5 µM for the first, > 5 µM for the second.

`COc1ccc(C[C@H](CO)NC(=O)c2cc(-c3[nH]ncc3-c3cccc(Br)c3)c[nH]2)cc1OC` [II-296] and `O=C(N[C@@H](CO)Cc1ccc(O)cc1)c1cc(-c2[nH]ncc2-c2cccc(Br)c2)c[nH]1` [II-293] cannot be ordered by Ki: > 5 µM for the first, > 5 µM for the second.

`Nc1cc(-c2cn[nH]c2-c2c[nH]c(C(=O)NC(CO)c3ccccc3)c2)cc(I)c1O` (stereo not shown) [II-44] and `O=C(N[C@@H](CO)c1ccccc1)c1cc(-c2[nH]ncc2-c2cc(Cl)cc(Cl)c2)c[nH]1` [II-39] cannot be ordered by Ki: < 1 µM for the first, < 1 µM for the second.

`COc1ccccc1CNC(=O)c1cc(-c2[nH]ncc2-c2cccc(Br)c2)c[nH]1` [II-69] and `Nc1ccc(CNC(=O)c2cc(-c3[nH]ncc3-c3cccc(Br)c3)c[nH]2)cc1` [II-109] cannot be ordered by Ki: < 1 µM for the first, < 1 µM for the second.

First: O=C(NCc1cccnc1)c1cc(-c2[nH]ncc2-c2cccc(F)c2)c[nH]1 [II-119]
Second: O=C(NCc1cccnc1)c1cc(-c2[nH]ncc2-c2ccc(Cl)c(Cl)c2)c[nH]1 [II-74]
The Ki of the first is higher: 1 to 5 µM for the first, < 1 µM for the second. The second binds more tightly here.

Going from `Cc1cccc(-c2cn[nH]c2-c2c[nH]c(C(=O)NCc3ccncc3)c2)c1` [II-96] to `O=C(NCc1ccncc1)c1cc(-c2[nH]ncc2-c2cccc([N+](=O)[O-])c2)c[nH]1` [II-289], the Ki rises from < 1 µM to > 5 µM. The first binds more tightly here.

Compared with `O=C(NC(CO)(CO)CO)c1cc(-c2[nH]ncc2-c2cccc(Br)c2)c[nH]1` [II-295], `O=C(NC[C@@H]1CCCC[C@@H]1O)c1cc(-c2[nH]ncc2-c2cccc(Br)c2)c[nH]1` [II-65] is lower in Ki: > 5 µM for the first, < 1 µM for the second.

First: O=C(NCc1ccccc1)c1cc(-c2[nH]ncc2-c2cccc([N+](=O)[O-])c2)c[nH]1 [II-285]
Second: Cc1cccc(-c2cn[nH]c2-c2c[nH]c(C(=O)NCc3ccccc3)c2)c1 [II-90]
The Ki of the first is higher: 1 to 5 µM for the first, < 1 µM for the second. The second binds more tightly here.

`CC(C)(C)OC(=O)N1CCCC(CNC(=O)c2cc(-c3[nH]ncc3-c3cccc(Cl)c3F)c[nH]2)C1` (stereo not shown) [II-121] and `COC(=O)c1cccc(-c2cn[nH]c2-c2c[nH]c(C(=O)NCc3ccccc3)c2)c1` [II-132] fall in the same range of Ki: 1 to 5 µM for the first, 1 to 5 µM for the second.

`O=C(NCc1ccccc1)c1cc(-c2[nH]ncc2-c2ccc(F)cc2)c[nH]1` [II-111] and `O=C(NCc1ccccc1)c1cc(-c2[nH]ncc2-c2cccc([N+](=O)[O-])c2)c[nH]1` [II-79] cannot be ordered by Ki: < 1 µM for the first, < 1 µM for the second.

Compared with `COc1cc(OC)c(CNC(=O)c2cc(-c3[nH]ncc3-c3cccc(Br)c3)c[nH]2)c(OC)c1` [II-118], `COc1cc2c(cc1OC)C(CO)N(C(=O)c1cc(-c3[nH]ncc3-c3cccc(Br)c3)c[nH]1)CC2` (stereo not shown) [II-105] is lower in Ki: 1 to 5 µM for the first, < 1 µM for the second.

First: O=C(N[C@@H](CO)Cc1cnc[nH]1)c1cc(-c2[nH]ncc2-c2cccc(Br)c2)c[nH]1 [II-294]
Second: CCC(NC(=O)c1cc(-c2[nH]ncc2-c2cccc(Br)c2)c[nH]1)c1ccccc1 (stereo not shown) [II-62]
The Ki of the first is higher: > 5 µM for the first, < 1 µM for the second.

`O=C(NCc1ccco1)c1cc(-c2[nH]ncc2-c2ccccc2)c[nH]1` [II-22] and `NNC(=O)c1cc(-c2[nH]ncc2-c2cccc([N+](=O)[O-])c2)c[nH]1` [II-3] cannot be ordered by Ki: < 1 µM for the first, < 1 µM for the second.

`CCN(C)C(=O)c1cc(-c2[nH]ncc2-c2cccc(F)c2)c[nH]1` [II-291] and `CCOC(=O)c1cc(-c2[nH]ncc2-c2cccc(F)c2)c[nH]1` [II-162] cannot be ordered by Ki: > 5 µM for the first, > 5 µM for the second.

Going from `CCOC(=O)c1cc(-c2[nH]ncc2-c2ccc(F)cc2)c[nH]1` [II-11] to `CCOC(=O)c1cc(-c2[nH]ncc2-c2cccc([N+](=O)[O-])c2)c[nH]1` [II-6], the Ki falls from > 5 µM to < 1 µM. The second binds more tightly here.

`O=C(c1cc(-c2[nH]ncc2-c2cccc(Br)c2)c[nH]1)N1CCc2ccccc2C1` [II-87] and `O=C(Nc1ccc(F)c(F)c1)c1cc(-c2[nH]ncc2-c2cccc(Br)c2)c[nH]1` [II-40] cannot be ordered by Ki: < 1 µM for the first, < 1 µM for the second.

For `COc1cccc(-c2cn[nH]c2-c2c[nH]c(C(=O)N(C)C)c2)c1` [II-23], the Ki was < 1 µM.
